Results published in US20260048036A1, “CRYSTALLINE FORMS OF A GLUCOSYLCERAMIDE SYNTHASE INHIBITOR AND USES THEREOF” (ACELINK THERAPEUTICS, INC., priority 2022, published 2026).
Numbering of substitutions follows the chain as printed. Several values for one entry are separate records, joined by “and”; a condition that tells them apart may be missing. Equal entries are not always repeated. One block for each compound: values may come before it.

How the values were obtained:
[1] = Hygroscopicity by DVS at 25° C.; assay type: physicochemical; conditions: for water uptake increased from 40% RH to 90% RH: DVS
[2] = Solid state stability, 1 week (HPLC purity, color, XRPD); conditions: for Bulk (XRPD) / Purity, Bulk (HPLC): Solid state, 1 week; for Purity, Bulk (HPLC): initial purity 99.8%
[3] = Solubility at 37° C. in pH buffers and bio-relevant media
[4] = target: T1, Glucosylceramide synthase (GCS) (Canis lupus familiaris, UniProt A0A8I3MXG6); test: GCS enzymatic assay with MDCK cell lysate; assay type: biochemical, canine
T1 construct: The MDCK, K-562, and L6 cell lines all endogenously express GCS enzyme; host or cells: MDCK (canine kidney) cell lysate
T1 sequence (A0A8I3MXG6 1-394): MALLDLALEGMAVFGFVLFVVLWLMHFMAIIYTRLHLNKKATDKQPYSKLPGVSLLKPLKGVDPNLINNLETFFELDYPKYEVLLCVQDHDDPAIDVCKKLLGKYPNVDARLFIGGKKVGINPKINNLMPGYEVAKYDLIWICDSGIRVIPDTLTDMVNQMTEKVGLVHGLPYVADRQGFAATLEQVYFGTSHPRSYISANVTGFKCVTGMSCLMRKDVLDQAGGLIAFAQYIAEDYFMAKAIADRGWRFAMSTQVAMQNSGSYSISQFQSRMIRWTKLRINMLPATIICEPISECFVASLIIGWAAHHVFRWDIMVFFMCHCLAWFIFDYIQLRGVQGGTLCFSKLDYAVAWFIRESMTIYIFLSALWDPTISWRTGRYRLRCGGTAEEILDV
From the text: (§1) The reaction product, C6-NBD-glucosylceramide, could then be detected and quantified by LC-MS/MS. The inventors used this method to test and validate the effect of various GCS inhibitors on GCS enzyme activity from different species.
(§2) The GCS enzyme activity was detected by using the fluorescent substrate, C6-NBD-ceramide, and monitoring the formation of the fluorescent reaction product, C6-NBD-glucosylceramide. First, the inventors used cell lysate derived from a canine kidney cell line (MDCK, ATCC Cat #CCL-34™) as the source of GCS and tested the inhibitory activity of several control and test compounds.
(§3) GCS activity was evaluated using a GCS enzyme assay derived from MDCK or L6 cell lysates.
(§4) MDCK or L6 cell lysates were prepared using M-PER in the presence of a protease inhibitor cocktail. Each 100 mm dish (100% confluent) was lysed with 250 μl of M-PER containing protease inhibitors. Protein concentration was determined using Pierce BCA protein assay kit.
The final concentration of DMSO was 0.1% in both compound treated and DMSO only treated samples. Each individual reaction was terminated with 11 volumes of methanol:acetonitrile (6:5; containing 200 ng/ml Tolbutamide as internal control). After sufficient mixing, reactions were centrifuged at 2000 rpm for 10 mins, supernatant was injected into the LC-MS/MS for analysis.
(§5) The quantitative analysis of C6-NBD-glucosylceramide was performed on a Shimadzu ultra-fast liquid chromatography coupled with API 4000 mass spectrometer. Analyst 1.5 software packages were used to control the LC-MS/MS system, as well as for data acquisition and processing.
(§6) The C6-NBD-glucosylceramide reading was normalized first by dividing the peak area of C6-NBD-glucosylceramide with the peak area of the internal standard, and then the amount was calculated according to the standard curve generated in the same assay run. For the cell based assay results, the amount of C6-NBD-glucosylceramide was also normalized by the protein concentration of the cell samples.
IC50 values were generated from sigmoidal dose-response (variable slope) curves with GraphPad Prism software (GraphPad Software, Inc., San Diego, CA) using the percent inhibition of C6-NBD-glucosylceramide accumulation relative to DMSO control.

[5] = target: T2, Glucosylceramide synthase (GCS) (Rattus norvegicus, UniProt Q9R0E0); test: GCS enzymatic assay with L6 cell lysate; assay type: biochemical; conditions: 1 μM, N = 1, N = 2
T2 construct: The MDCK, K-562, and L6 cell lines all endogenously express GCS enzyme; host or cells: L6 rat skeletal muscle cell lysate
T2 sequence (Q9R0E0 1-394): T1 sequence (A0A8I3MXG6 1-394) with L8Q, V13L, A29S, D96E, G131A, K164R, R249K, A251S, T377A
From the text: as §1, with “In this study, the inventors developed a reliable method to monitor GCS catalytic activity using the fluorescent substrate, C6-NBD-ceramide. The reaction” for “The reaction”
The MDCK, K-562, and L6 cell lines all endogenously express GCS enzyme and were used to test the effect of various GCS inhibitors on enzyme originating from different species. The GCS enzyme activity was detected by using the fluorescent substrate, C6-NBD-ceramide, and monitoring the formation of the fluorescent reaction product, C6-NBD-glucosylceramide. First, the inventors used cell lysate derived from a canine kidney cell line (MDCK, ATCC Cat #CCL-34™) as the source of GCS and tested the inhibitory activity of several control and test compounds. The inventors then used the human leukemia K-562 cell line (ATCC Cat #[…]) to test the effect of these GCS inhibitors on intact living cells. Finally, a cell lysate derived from a rat skeletal muscle cell line, L6 (ATCC Cat #[…]), was used to test the effect of these GCS inhibitors on rodent GCS enzyme.
as §3, §4
Sixty micrograms of MDCK lysate was incubated with various concentrations of compounds (0.00001 μM-1 μM) in 100 mM Tris buffer (pH 7.5) containing 10 mM MgCl2, 1 mM dithiothreitol, 1 mM EGTA, 2 mM NAD, 100 μM UDP-glucose, 10 μM C6-NBD-ceramide with 35 μM dioleoylphosphatidylcholine/5 μM sulfatide in a final reaction volume of 100 μl at 37° C. for 1 hour. The final concentration of DMSO was 0.1% in both compound treated and DMSO only treated samples. Each individual reaction was terminated with 11 volumes of methanol:acetonitrile (6:5; containing 200 ng/ml Tolbutamide as internal control). After sufficient mixing, reactions were centrifuged at 2000 rpm for 10 mins, supernatant was injected into the LC-MS/MS for analysis.
For the assay with L6 cell lysate, different amounts of L6 cell lysate were used.
as §5, §6
To confirm the inhibitory activity of test compounds on GCS from different species, cells from rat were used. First, the presence of GCS activity was verified using various amounts of L6 cell lysate (FIG. 34, Table 26).

[6] = target: T3, Glucosylceramide synthase (GCS) (Homo sapiens, UniProt Q16739); test: GCS cell-based assay with live K-562 cells; conditions: C6-NBD-glucosylceramide by LC-MS/MS
T3 construct: The MDCK, K-562, and L6 cell lines all endogenously express GCS enzyme; host or cells: K-562 human leukemia cells, live
T3 sequence (Q16739 1-394): T1 sequence (A0A8I3MXG6 1-394) with V20L, S196Y
From the text: as §1, §2, §5
as §6, with “samples. […]” for “samples.”

[7] = 1 μM, 60 μg MDCK lysate/reaction, N = 1, N = 2

Structure (SMILES): O=C(N[C@H](CN1CCCC1)[C@H](O)c1ccc(OC2CC2)c(Cl)c1)/C(=N/O)c1ccc2cc(Cl)ccc2c1.O=C(O)C[C@H](O)C(=O)O
XRPD after DVS test [1]: No form change
hygroscopicity (DVS) [1]: slightly hygroscopic
Desorp. (DVS) ([1]; 0% RH): 0.17%
Sorp. (water uptake by DVS) ([1]; 0% RH): 0.17%
Desorp. (DVS) ([1]; 10% RH): 0.22%
Sorp. (water uptake by DVS) ([1]; 10% RH): 0.22%
Desorp. (DVS) ([1]; 20% RH): 0.26%
Sorp. (water uptake by DVS) ([1]; 20% RH): 0.26%
Desorp. (DVS) ([1]; 30% RH): 0.30%
Sorp. (water uptake by DVS) ([1]; 30% RH): 0.30%
Desorp. (DVS) ([1]; 40% RH): 0.33%
Sorp. (water uptake by DVS) ([1]; 40% RH): 0.33%
Sorp. (water uptake by DVS) ([1]; 50% RH): 0.36%
Sorp. (water uptake by DVS) ([1]; 60% RH): 0.40%
Sorp. (water uptake by DVS) ([1]; 70% RH): 0.48%
Sorp. (water uptake by DVS) ([1]; 80% RH): 0.56%
Sorp. (water uptake by DVS) ([1]; 90% RH): 0.92%
water uptake increased from 40% RH to 90% RH [1]: about 0.59%
chemical and physical stability ([2]; 25° C./92% RH open container, 40° C./75% RH open container, 60° C. tight container, one week): chemically and physically stable
Bulk (XRPD) ([2]; 25° C./92% RH, open container): No form change
Purity, Bulk (HPLC) ([2]; 25° C./92% RH, open container): 99.8%
Bulk (XRPD) ([2]; 40° C./75% RH, open container): No form change
Purity, Bulk (HPLC) ([2]; 40° C./75% RH, open container): 99.8%
Bulk (XRPD) ([2]; 60° C., tight container): No form change
Purity, Bulk (HPLC) ([2]; 60° C., tight container): 99.8%
higher solubility than that of the free form Crystalline Form A of Compound 1 ([3]; pH 4.5 buffer, 37° C.): about 3 folds

Structure (SMILES): O=C(N[C@H](CN1CCCC1)[C@H](O)c1ccc(OC2CC2)c(Cl)c1)/C(=N/O)c1ccc2cc(Cl)ccc2c1.O=C(O)C(O)C(O)C(=O)O
XRPD after DVS test [1]: No form change
hygroscopicity (DVS) [1]: slightly hygroscopic
Desorp. (DVS) ([1]; 0% RH): 0.00%
Sorp. (water uptake by DVS) ([1]; 0% RH): 0.00%
Desorp. (DVS) ([1]; 10% RH): 0.07%
Sorp. (water uptake by DVS) ([1]; 10% RH): 0.04%
Desorp. (DVS) ([1]; 20% RH): 0.12%
Sorp. (water uptake by DVS) ([1]; 20% RH): 0.09%
Desorp. (DVS) ([1]; 30% RH): 0.18%
Sorp. (water uptake by DVS) ([1]; 30% RH): 0.14%
Desorp. (DVS) ([1]; 40% RH): 0.22%
Sorp. (water uptake by DVS) ([1]; 40% RH): 0.18%
Sorp. (water uptake by DVS) ([1]; 50% RH): 0.25%
Sorp. (water uptake by DVS) ([1]; 60% RH): 0.28%
Sorp. (water uptake by DVS) ([1]; 70% RH): 0.35%
Sorp. (water uptake by DVS) ([1]; 80% RH): 0.42%
Sorp. (water uptake by DVS) ([1]; 90% RH): 0.57%
water uptake increased from 40% RH to 90% RH [1]: about 0.39%
Bulk (XRPD) ([2]; 25° C./92% RH, open container): No form change
Purity, Bulk (HPLC) ([2]; 25° C./92% RH, open container): 99.8%
Bulk (XRPD) ([2]; 40° C./75% RH, open container): No form change
Purity, Bulk (HPLC) ([2]; 40° C./75% RH, open container): 99.8%
Bulk (XRPD) ([2]; 60° C., tight container): No form change
Purity, Bulk (HPLC) ([2]; 60° C., tight container): 99.8%

Structure (SMILES): O=C(N[C@H](CN1CCCC1)[C@H](O)c1ccc(OC2CC2)c(Cl)c1)/C(=N/O)c1ccc2cc(Cl)ccc2c1 [Compound 1, (E)-N-((1R,2R)-1-(3-chloro-4-cyclopropoxyphenyl)-1-hydroxy-3-(pyrrolidin-1-yl)propan-2-yl)-2-(6-chloronaphthalen-2-yl)-2-(hydroxyimino)acetamide]
pH dependence of solubility ([3]; […]): typical pH dependent solubility

C6-NBD-Ceramide (Normalized to internal control) [4, 7]: 4.68 and 4.99
C6-NBD-Glucosylceramide Concentration [4, 7]: 49.8 nM and 59.3 nM
Inhibition [4, 7]: 94.01%
inhibition at 1 µM [4, 7]: 95%
IC50 ([4]; MDCK cell lysate as source of GCS, C6-NBD-glucosylceramide by LC-MS/MS): 0.0522 µM
C6-NBD-Ceramide (Normalized to internal control) ([5]; 30 μg L6 lysate/reaction): 5.98 and 6.37
C6-NBD-Glucosylceramide Concentration ([5]; 30 μg L6 lysate/reaction): 31.2 nM and 51.0 nM
Inhibition ([5]; 30 μg L6 lysate/reaction): 92.48%
inhibition at 1 µM ([5]; 30 μg L6 lysate/reaction): 95.4%
C6-NBD-Ceramide (Normalized to internal control) ([5]; 60 μg L6 lysate/reaction): 6.47 and 5.46
C6-NBD-Glucosylceramide Concentration ([5]; 60 μg L6 lysate/reaction): 50.2 nM and 44.1 nM
Inhibition ([5]; 60 μg L6 lysate/reaction): 96.04%
inhibition at 1 µM ([5]; 60 μg L6 lysate/reaction): 95.5%
C6-NBD-Ceramide (Normalized to internal control) ([5]; 120 μg L6 lysate/reaction): 5.82 and 6.23
C6-NBD-Glucosylceramide Concentration ([5]; 120 μg L6 lysate/reaction): 48.4 nM and 57.9 nM
Inhibition ([5]; 120 μg L6 lysate/reaction): 95.77%
inhibition at 1 µM ([5]; 120 μg L6 lysate/reaction): 96.5%
C6-NBD-Ceramide (Normalized to internal control) ([5]; 180 μg L6 lysate/reaction): 5.60 and 5.41
C6-NBD-Glucosylceramide Concentration ([5]; 180 μg L6 lysate/reaction): 63.6 nM and 63.3 nM
Inhibition ([5]; 180 μg L6 lysate/reaction): 95.22%
inhibition at 1 µM ([5]; 180 μg L6 lysate/reaction): 95.2%
C6-NBD-Ceramide (Normalized to internal control) ([5]; 240 μg L6 lysate/reaction): 4.96 and 5.12
C6-NBD-Glucosylceramide Concentration ([5]; 240 μg L6 lysate/reaction): 56.2 nM and 57.7 nM
Inhibition ([5]; 240 μg L6 lysate/reaction): 95.21%
inhibition at 1 µM ([5]; 240 μg L6 lysate/reaction): 95.3%
Structure (SMILES): CCCCCCCC(=O)N[C@H](CN1CCCC1)[C@H](O)c1ccc2c(c1)OCCO2 [Eliglustat, reference compound]

IC50 [6]: 0.0148 µM
Structure (SMILES): O=C(N[C@H](CN1CCCC1)[C@H](O)c1ccc(OC2CC2)c(Cl)c1)/C(=N\O)c1ccc2cc(Cl)ccc2c1 [Geometric isomer of Compound 1]
